Laboratory results as given in patent US7176035B2, “Protein-protein interactions and methods for identifying interacting proteins and the amino acid sequence at the site of interaction” (priority 1999, dated 2007).
Where no end group is shown, it is not given here.

Tests used:
[1] = system: 57 kDa protein (α- and β-tubulins); experiment: Binding of rod-fixed overlapping hexapeptides of P-gp linker domains to [35S]methionine-labeled total cell lysate, SDS-PAGE; details: for binding affinity to the 57 kDa protein in the overlapping hexapeptide scan: total cell lysate from [35S]methionine labeled CEM or CEM/VLB1.0 cells, bound proteins eluted with SDS, 10% SDS-PAGE; for binding of resynthesized hexapeptide to the 57 kDa protein: total cell lysate from [35S]methionine labeled cells, 24 hour or 48 hour incubation (FIG. 11)
Experimental: Pre-derivatized plastic rods, active ester and polypropylene trays were purchased from Cambridge Research Biochemicals (Valley Stream, N.Y.). Peptides were synthesized on solid polypropylene rods as previously described (36, 37). Briefly, the F-moc protecting group on the prederivatized polypropylene rods as solid support (arranged in a 96-well formate) was removed by incubation with 20% (v/v) piperidine in dimethylformamide (DMF) for 30 minutes with shaking. Following the deprotection of the β-alanine spacer on the polypropylene rods, Fmoc protected amino acids were dissolved in HOBt/DMF and added to the appropriate wells containing deprotected rods. Coupling of amino acids was allowed to take place for 18 hours at room temperature after which the rods were washed in DMF (1×2 minutes), methanol (4×2 minutes), and DMF (1×2 minutes). The coupling of the second amino acid required the deprotection of the F-moc amino protecting group of the first amino acid and incubation of the rods with the second preactivated F-moc-protected amino acids (pentafluorophenyl derivatives). The reaction was allowed to proceed for 18 hours, and the rods were removed and washed as indicated above. The same steps were repeated for each amino acid coupling until the sixth amino acid was coupled. Following the last coupling step, the F-moc N-terminal protecting group was removed with 20% piperidine/DMF and the free amino group acetylated for 90 minutes in an acetylation cocktail containing acetic anhydride:diisopropylethylamine (DIEA):DMF (50:1:50 v/v/v). The side chain protecting groups of the N-terminal acetylated hexapeptides onto the polypropylene rods were removed by incubation in a cleavage mixture containing trifluoroacetic acid:phenol:ethandithiol (95:2.5:2.5 v/v/v) for 4 hours at room temperature. After the cleavage step the rods were washed with dichloromethane (DCM) and neutralized in 5% (v/v) DIEA/DCM. The deprotected peptide-coupled rods were washed in DCM, methanol and vacuum dried for 18 hours.
Following metabolic labeling of proteins with [^35S] methionine, cells were washed 3 times with phosphate buffered saline (PBS) and resuspended in hypotonic buffer (10 mM KCl, 1.5 mM MgCl2, 10 mM Tris-HCl, pH 7.4) containing protease inhibitors (2 mM PMSF, 3 μg/ml Leupeptin, 4 μg/ml pepstatin A and 1 μg/ml aprotinin) and kept on ice for 30 minutes. […] The amount of protein in the above samples was determined by the method of Lowry (69).
For a binding assay, [^35S] methionine labeled proteins from total cell lysate were mixed with equal volume of 3–6% BSA in phosphate buffered saline (PBS) and incubated with overlapping hexapeptides covalently fixed to polypropylene rods. […] The peptides-fixed rods are now ready for the next round of screening. […]

~41 kDa protein = experiment: Resynthesized high affinity hexapeptides incubated with total cell lysate; format: binding; details: total cell lysate from [35S]methionine labeled cells (FIG. 11); level rises with longer incubation
Experimental: Two high affinity binding sequences ^658RSSLIR^663 (SEQ ID NO: 7) and ^669SVRGSQ^674 (SEQ ID NO: 8) from HP-gp1 linker domain were resynthesized and incubated with total cell lysate from [^35S] methionine metabolically labeled cells following 24 hour or 48 hour incubation times. Bound proteins were eluted from peptide-fixed rods and resolved by 10% SDS-PAGE. The migration of the molecular weight markers is shown to the left of the figure.
For a binding assay, [^35S] methionine labeled proteins from total cell lysate were mixed with equal volume of 3–6% BSA in phosphate buffered saline (PBS) and incubated with overlapping hexapeptides covalently fixed to polypropylene rods. The peptides and total cell lysate were incubated overnight at 4° C. The rods were then removed and washed four times in PBS. The bound proteins were eluted by incubating the peptide-fixed rods in 1×SDS sample buffer for 60 minutes at room temperature with shaking. The peptides-fixed rods, were regenerated by incubation in PBS, containing 2% SDS and 1 mM β-mercaptoethanol at 65° C. in a sonicator for 30 minutes. Following the latter incubation, the rods were washed for five minutes in 65° C. ionized water and two minutes in 65° C. methanol. The peptides-fixed rods are now ready for the next round of screening. […]

Substance	binding affinity to the 57 kDa protein in the overlapping hexapeptide scan [1]	binding of resynthesized hexapeptide to the 57 kDa protein [1]	binding of resynthesized hexapeptide to a ~41 kDa protein (~41 kDa protein)
SVRGSQ: N-terminal acetylated hexapeptide from the second region of HP-gp1 linker domain, covalently fixed to polypropylene rods (Ac-SVRGSQ; also: attached to polypropylene rods; listed as Homo sapiens)	bound with the highest affinity to the 57 kDa protein	bound specifically to the 57 kDa protein	bound specifically
RSSLIR: N-terminal acetylated hexapeptide from the second region of HP-gp1 linker domain, covalently fixed to polypropylene rods (Ac-RSSLIR; also: attached to polypropylene rods; listed as Homo sapiens)	bound with the highest affinity to the 57 kDa protein	bound specifically to the 57 kDa protein	bound specifically
